Test results: BigSolDB 2.1

Nc1cc(Cl)nnc1Cl
Conditions	solubility (mole fraction)
in 1,4-dioxane, 289.15 K	0.00294
in 1,4-dioxane, 293.65 K	0.00365
in 1,4-dioxane, 298.15 K	0.00427
in 1,4-dioxane, 303.15 K	0.00556
in 1,4-dioxane, 308.15 K	0.0066
in 1,4-dioxane, 313.15 K	0.00811
in 1,4-dioxane, 318.15 K	0.00982
in 1,4-dioxane, 323.15 K	0.0121
in THF, 290.05 K	0.0443
in THF, 295.15 K	0.0484
in THF, 299.15 K	0.0517
in THF, 303.15 K	0.0556
in THF, 305.15 K	0.057
in THF, 308.15 K	0.0604
in THF, 313.65 K	0.0648
in THF, 318.15 K	0.0688
in THF, 323.15 K	0.0752
in acetone, 295.65 K	0.0244
in acetone, 298.15 K	0.0258
in acetone, 300.65 K	0.0276
in acetone, 303.15 K	0.0293
in acetone, 305.65 K	0.0311
in acetone, 308.15 K	0.0327
in acetone, 310.65 K	0.0342
in acetone, 313.15 K	0.036
in acetone, 315.65 K	0.0377
in acetone, 318.15 K	0.0393
in acetone, 320.65 K	0.041
in acetone, 323.15 K	0.0427
in dichloromethane, 295.15 K	7.41e-05
in dichloromethane, 297.15 K	0.000111
in dichloromethane, 299.15 K	0.000174
in dichloromethane, 301.15 K	0.000262
in dichloromethane, 303.15 K	0.000387
in dichloromethane, 305.15 K	0.000543
in dichloromethane, 307.15 K	0.000811
in dichloromethane, 309.15 K	0.00117
in ethyl acetate, 295.65 K	0.00111
in ethyl acetate, 298.15 K	0.00134
in ethyl acetate, 300.65 K	0.00159
in ethyl acetate, 303.15 K	0.00192
in ethyl acetate, 305.65 K	0.00235
in ethyl acetate, 308.15 K	0.00303
in ethyl acetate, 310.65 K	0.00371
in ethyl acetate, 313.15 K	0.0049
in ethyl acetate, 315.65 K	0.00577
in methanol, 295.65 K	0.0142
in methanol, 298.15 K	0.0153
in methanol, 300.65 K	0.0161
in methanol, 303.15 K	0.0169
in methanol, 305.65 K	0.0178
in methanol, 308.15 K	0.0189
in methanol, 310.65 K	0.0201
in methanol, 313.15 K	0.0214
in methanol, 315.65 K	0.0229
